In patent US20250154140A1 (Sunnybrook Research Institute, priority 2022, published 2025):

The compounds below were run against BAX (Homo sapiens, UniProt Q07812) (assay: SMAC mCherry assay in permeabilized Bax-/- Bak-/- BMK cells with recombinant Bax and cBid). Conditions: 20 nM Bax, 0.5 nM cBid, 60-80 minutes; read-out: SMAC mCherry I.D IC50.
Format: cell-based, mouse
Set-up: made in house; host or cells: Escherichia coli BL21-AI
Protocol: Bax−/− Bak−/− double-knockout Baby Mouse Kidney (BMK) cells stably expressing a SMAC-(1-56)-mCherry fusion protein were cultured in DMEM complete (DMEM supplemented with 10% FBS and 1× Penicillin-Streptomycin) in 10 cm diameter tissue-culture treated dishes at 37° C. in a humidified incubator with 5% CO2 in air. Cells were washed with PBS, incubated with 1×Trypsin and resuspended in DMEM complete. Detached cells were seeded at 6000 cells per well in 50 uL DMEM complete into a 384 well Perkin-Elmer Phenoplate, incubated at room-temperature for 30 minutes followed by incubation overnight at 37° C. in a humidified incubator with 5% CO2 in air. Recombinant Bax and recombinant cBid were quickly thawed between fingers and 25 mM compound stocks in DMSO were thawed at room temperature. An 8 point titration curve of each compound was created in a 384-well source plate containing Trehalose-Hepes Buffer (THB, 135 mM trehalose, 50 mM KCl, 10 mM HEPES-KOH pH 7.4, 5 mM succinate, 20 uM EDTA, 20 uM EGTA, 0.1% BSA) supplemented with 1/1000 DRAQ5, 0.0025% digitonin, 20 nM Bax and 0.5 nM cBid. The source plate also contained control wells with THB supplemented with 1/1000 DRAQ5, 0.0025% digitonin plus 20 nM Bax (negative control) or 20 nM Bax and 0.5 nM cBid (positive control). Using the Vantage automated liquid handler, DMEM complete media was removed from the cells growing in the 384 well Phenoplate. The cells were washed 2× with 30 uL THB and then 25 uL from the 384 well source plate containing THB proteins and compounds was transferred to the cells growing in the 384 well plate. The cells were incubated for 60-80 minutes at 37 C in a humidified incubator with 5% CO2 in air and then imaged on the Opera Phenix Microscope. Two image channels were acquired: 1) DRAQ5 channel, to visualize nuclei and aid in cell segmentation and 2) SMAC-mCherry channel to visualize mitochondria that retain SMAC-mCherry. Data was processed using PerkinElmer Harmony software where the cells were segmented using the DRAQ5 channel and the mean intensity of SMAC-mCherry for each cell was calculated. The single-cell lobject level data was exported and then analyzed using R code. A per cell SMAC-mCherry intensity cutoff was calculated as 1.33 times the mean per cell SMAC-mCherry intensity of the THB+Bax control. Cells with a SMAC-mCherry intensity below or equal to the cutoff were scored as “released”. The percentage SMAC-mCherry release was calculated as the number of cells scored as “released” divided by the total amount of cells multiplied by 100. Dose-response curves were fit to a 4-parameter log-logistic model to determine the IC50 value for each compound.

BAX, sequence (Q07812 whole entry): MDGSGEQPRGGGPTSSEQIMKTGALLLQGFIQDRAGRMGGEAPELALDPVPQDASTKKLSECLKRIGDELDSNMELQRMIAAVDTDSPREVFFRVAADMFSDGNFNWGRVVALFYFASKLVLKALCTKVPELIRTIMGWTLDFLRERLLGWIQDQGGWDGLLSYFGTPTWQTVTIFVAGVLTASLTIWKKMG

Row | SMILES | IC50 [µM]
1 | COc1cc2ccnc(Nc3ccccc3)c2cc1NC(=O)CCCN1CCCCC1 [Compound 1-15, N-(6-methoxy-1-(phenylamino)isoquinoin-l7-yl)-4-(piperidin-1-yl)butanamide] | 51 to 100
2 | COc1cc2ccnc(Nc3cccc(Cl)c3)c2cc1NC(=O)CCCN1CCCCC1 [Compound 1-13, N-(1-((3-chlorophenyl)amino)-6-methoxyisoquinolin-7-yl)-4-(piperidin-1-yl)butanamide] | 11 to 50
3 | COc1cc2ccnc(Nc3ccc(Cl)c(Cl)c3)c2cc1NC(=O)CCCN1CCCCC1 [Compound 1-27, N-(1-((3,4-dichlorophenyl)amino)-6-methoxyisoquinolin-7-yl)-4-(piperidin-1-yl)butanamide] | 0.1 to 10
4 | N#Cc1cccc(Nc2nccc3ccc(NC(=O)CCCN4CCCCC4)cc23)c1 [Compound 1-41, N-(1-((3-cyanophenyl)amino)isoquinolin-7-yl)-4-(piperidin-1-yl)butanamide] | 11 to 50
5 | COc1cc(Nc2nccc3cc(OC)c(NC(=O)CCCN4CCCCC4)cc23)ccc1F [Compound 1-22, N-(1-((4-fluoro-3-methoxyphenyl)amino)-6-methoxyisoquinolin-7-yl)-4-(piperidin-1-yl)butanamide] | 11 to 50
6 | COc1cc2ccnc(Nc3cc(F)cc(Cl)c3)c2cc1NC(=O)CCCN1CCCCC1 [Compound 1-25, N-(1-((3-chloro-5-fluorophenyl)amino)-6-methoxyisoquinolin-7-yl)-4-(piperidin-1-yl)butanamide] | 0.1 to 10
7 | COc1cc2ccnc(Nc3ccc(C)c(Cl)c3)c2cc1NC(=O)CCCN1CCCCC1 [Compound 1-21, N-(1-((3-chloro-4-methylphenyl)amino)-6-methoxyisoquinolin-7-yl)-4-(piperidin-1-yl)butanamide] | 0.1 to 10
8 | COc1cc2ccnc(Nc3ccc(F)c(Cl)c3)c2cc1NC(=O)CCCN1CCC(F)(F)CC1 [Compound 1-8, N-(1-((3-chloro-4-fluorophenyl)amino)-6-methoxyisoquinolin-7-yl)-4-(4,4-difluoropiperidin-1-yl)butanamide] | 0.1 to 10
9 | COc1cc2ccnc(Nc3ccc(F)c(C(C)C)c3)c2cc1NC(=O)CCCN1CCCCC1 [Compound 1-30, N-(1-((4-fluoro-3-isopropylphenyl)amino)-6-methoxyisoquinolin-7-yl)-4-(piperidin-1-yl)butanamide] | 11 to 50
10 | COc1cc(NC(=O)CCCN2CCCCC2)cc2c(Nc3ccc(F)c(Cl)c3)nccc12 [Compound 1-29, N-(1-((3-chloro-4-fluorophenyl)amino)-5-methoxyisoquinolin-7-yl)-4-(piperidin-1-yl)butanamide] | 0.1 to 10
11 | O=C(CCCN1CCCCC1)Nc1ccc2ccnc(Nc3cc(Cl)c(Cl)cc3F)c2c1 [Compound 1-38, N-(1-((4,5-dichloro-2-fluorophenyl)amino)isoquinolin-7-yl)-4-(piperidin-1-yl)butanamide] | 0.1 to 10
12 | COc1cc2ccnc(Nc3ccc(F)cc3)c2cc1NC(=O)CCCN1CCCCC1 [Compound 1-12, N-(1-((4-fluorophenyl)amino)-6-methoxyisoquinolin-7-yl)-4-(piperidin-1-yl)butanamide] | 51 to 100
13 | O=C(CCCN1CCCCC1)Nc1ccc2ccnc(Nc3ccc(Cl)c(Cl)c3)c2c1 [Compound 1-35, N-(1-((3,4-dichlorophenyl)amino)isoquinolin-7-yl)-4-(piperidin-1-yl)butanamide] | 0.1 to 10
14 | COc1cc2ccnc(Nc3ccc(F)c(Cl)c3)c2cc1NC(=O)CCN1CCCC1 [Compound 1-42, N-(1-((3-chloro-4-fluorophenyl)amino)-6-methoxyisoquinolin-7-yl)-3-(pyrrolidin-1-yl)propanamide] | 11 to 50
15 | COc1cc2ccnc(Nc3ccc(F)c(Cl)c3)c2cc1NC(=O)CCCN1CCOCC1 [Compound 1-6, N-(1-((3-chloro-4-fluorophenyl)amino)-6-methoxyisoquinolin-7-yl)-4-morpholinobutanamide] | 11 to 50
